The target in assay [1] is T1, Gastric inhibitory polypeptide receptor (Homo sapiens, UniProt P48546).
T1 sequence (P48546 whole entry): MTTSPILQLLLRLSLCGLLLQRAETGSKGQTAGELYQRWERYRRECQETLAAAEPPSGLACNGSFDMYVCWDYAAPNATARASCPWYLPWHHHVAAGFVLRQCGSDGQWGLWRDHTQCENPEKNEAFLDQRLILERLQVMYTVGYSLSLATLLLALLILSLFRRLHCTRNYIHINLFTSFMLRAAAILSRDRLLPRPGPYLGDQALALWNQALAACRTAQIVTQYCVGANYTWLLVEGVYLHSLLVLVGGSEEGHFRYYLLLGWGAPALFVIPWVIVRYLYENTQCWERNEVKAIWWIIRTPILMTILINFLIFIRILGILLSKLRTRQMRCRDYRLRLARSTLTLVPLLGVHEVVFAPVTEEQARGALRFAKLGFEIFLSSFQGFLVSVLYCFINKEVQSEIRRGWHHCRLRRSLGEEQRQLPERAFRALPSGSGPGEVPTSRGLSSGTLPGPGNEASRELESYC
Nature of the assay: Agonist activity at human GIPR expressed in CHO cells assessed as increase in cAMP production incubated for 30 mins by Eu-cAMP tracer based microplate reader analysis. The assay is classed as functional, cell-based.

Assay [2] deals with Glucagon-like peptide 1 receptor (Homo sapiens, UniProt P43220). Kind of assay: Agonist activity at human GLP-1R expressed in CHO cells assessed as increase in cAMP production incubated for 30 mins by Eu-cAMP tracer based microplate reader analysis. The assay is classed as functional, cell-based. On the technique in general: Cyclic AMP is a second messenger, typically raised through Gs and lowered through Gi signalling.
Glucagon-like peptide 1 receptor, sequence (P43220 whole entry): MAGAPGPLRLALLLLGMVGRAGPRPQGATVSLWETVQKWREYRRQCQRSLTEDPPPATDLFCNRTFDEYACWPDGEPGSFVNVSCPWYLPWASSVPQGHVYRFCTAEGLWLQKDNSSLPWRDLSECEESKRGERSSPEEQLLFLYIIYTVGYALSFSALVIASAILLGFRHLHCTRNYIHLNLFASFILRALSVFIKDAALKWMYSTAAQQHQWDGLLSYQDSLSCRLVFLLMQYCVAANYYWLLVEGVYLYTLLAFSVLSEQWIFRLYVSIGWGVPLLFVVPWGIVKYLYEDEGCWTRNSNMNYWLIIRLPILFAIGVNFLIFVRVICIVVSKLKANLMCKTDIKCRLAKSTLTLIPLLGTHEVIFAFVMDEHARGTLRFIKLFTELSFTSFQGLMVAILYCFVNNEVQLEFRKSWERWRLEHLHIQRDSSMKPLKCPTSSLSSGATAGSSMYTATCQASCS

The subject of the next assay is Mus musculus. Kind of assay: Glucose-lowering effect in male ICR mouse assessed as reduction in plasma glucose AUC (0 to 72 hrs) at 30 nmol/kg, sc pretreated for 71 hrs followed by […] administration and measured after 60 mins by oral glucose tolerance test. The assay is classed as functional, organism-based.

Calls of active or inactive are those of the source. The calls are words filed in the database; no cut-off is given here. Where a SMILES comes first, the peptide text is derived from it. [ ]: non-standard residue; d: D form. The star is where a group is joined. X1 = N[C@@H](CCCCNC(=O)CC[C@H](NC(=O)CCCCCCCCCCCCCCCCCCC(=O)O)C(=O)O)C(=O)NCCCC[C@H](N)C(=O)N[C@@H](CCCCNC(=O)C*)C(=O)O; X4 = O=C(O)CCCCCCCCCCCCCCCCCCC(=O)NCCOCCOCC(=O)N[C@@H](CCC(=O)N[C@@H](CCC(=O)N[C@@H](CCCCNC(=O)C*)C(=O)O)C(=O)O)C(=O)O; X6 = N[C@@H](CCCCNC(=O)CC[C@H](NC(=O)CCCCCCCCCCCCCCCCC(=O)O)C(=O)O)C(=O)NCCCC[C@H](N)C(=O)N[C@@H](CCCCNC(=O)C*)C(=O)O; Aib = CC(C)(N)C(=O)O

As a reminder, the EC50 is the concentration that produces a half-maximal response.

On to `CC(C)C[C@H](NC(=O)[C@H](CC(C)C)NC(=O)[C@H](Cc1c[nH]c2ccccc12)NC(=O)[C@H](CCC(N)=O)NC(=O)[C@@H](NC(=O)[C@H](Cc1ccccc1)NC(=O)[C@H](CC(C)C)NC(=O)[C@H](CCCCN)NC(=O)[C@H](C)NC(=O)[C@H](C)NC(=O)[C@H](CCC(N)=O)NC(=O)[C@H](CSCC(=O)NCCCC[C@H](NC(=O)[C@@H](N)CCCCNC(=O)[C@@H](N)CCCCNC(=O)CC[C@H](NC(=O)CCCCCCCCCCCCCCCCCCC(=O)O)C(=O)O)C(=O)O)NC(=O)[C@H](CCC(=O)O)NC(=O)[C@H](CC(C)C)NC(=O)[C@H](Cc1ccc(O)cc1)NC(=O)[C@H](Cc1ccc(O)cc1)NC(=O)[C@H](CO)NC(=O)[C@H](Cc1ccc(O)cc1)NC(=O)[C@H](CC(=O)O)NC(=O)[C@H](CO)NC(=O)[C@@H](NC(=O)[C@H](Cc1ccccc1)NC(=O)[C@@H](NC(=O)CNC(=O)[C@H](CCC(=O)O)NC(=O)C(C)(C)NC(=O)[C@@H](N)Cc1ccc(O)cc1)[C@@H](C)O)[C@@H](C)O)C(C)C)C(=O)N[C@@H](C)C(=O)NCC(=O)NCC(=O)N1CCC[C@H]1C(=O)N[C@@H](CO)C(=O)N[C@@H](CO)C(=O)NCC(=O)N[C@@H](C)C(=O)N1CCC[C@H]1C(=O)N1CCC[C@H]1C(=O)N1CCC[C@H]1C(=O)N[C@@H](CO)C(N)=O` (H-Y[Aib]EGTFTSDYSYYLEC(X1)QAAKLFVQWLLAGGPSSGAPPPS-NH2), for which the EC50 in assay [1] worked out at 0.012 nM; in assay [2], 0.52 nM. Further, in the assay with Mus musculus, the result was Active.
In the same order, the values of `CC(C)C[C@H](NC(=O)[C@H](CC(C)C)NC(=O)[C@H](Cc1c[nH]c2ccccc12)NC(=O)[C@H](CCC(N)=O)NC(=O)[C@@H](NC(=O)[C@H](Cc1ccccc1)NC(=O)[C@H](CC(C)C)NC(=O)[C@H](CSCC(=O)NCCCC[C@H](NC(=O)CC[C@H](NC(=O)CC[C@H](NC(=O)COCCOCCNC(=O)CCCCCCCCCCCCCCCCCCC(=O)O)C(=O)O)C(=O)O)C(=O)O)NC(=O)[C@H](C)NC(=O)[C@H](C)NC(=O)[C@H](CCC(N)=O)NC(=O)[C@H](CCCCN)NC(=O)[C@H](CCC(=O)O)NC(=O)[C@H](CC(C)C)NC(=O)[C@H](Cc1ccc(O)cc1)NC(=O)[C@H](Cc1ccc(O)cc1)NC(=O)[C@H](CO)NC(=O)[C@H](Cc1ccc(O)cc1)NC(=O)[C@H](CC(=O)O)NC(=O)[C@H](CO)NC(=O)[C@@H](NC(=O)[C@H](Cc1ccccc1)NC(=O)[C@@H](NC(=O)CNC(=O)[C@H](CCC(=O)O)NC(=O)C(C)(C)NC(=O)[C@@H](N)Cc1ccc(O)cc1)[C@@H](C)O)[C@@H](C)O)C(C)C)C(=O)N[C@@H](C)C(=O)NCC(=O)NCC(=O)N1CCC[C@H]1C(=O)N[C@@H](CO)C(=O)N[C@@H](CO)C(=O)NCC(=O)N[C@@H](C)C(=O)N1CCC[C@H]1C(=O)N1CCC[C@H]1C(=O)N1CCC[C@H]1C(=O)N[C@@H](CO)C(N)=O` (H-Y[Aib]EGTFTSDYSYYLEKQAAC(X4)LFVQWLLAGGPSSGAPPPS-NH2) are 0.73 nM, 1.25 nM and “Active”.
For `CC(C)C[C@H](NC(=O)[C@H](CC(C)C)NC(=O)[C@H](Cc1c[nH]c2ccccc12)NC(=O)[C@H](CCC(N)=O)NC(=O)[C@@H](NC(=O)[C@H](Cc1ccccc1)NC(=O)[C@H](CC(C)C)NC(=O)[C@H](CSCC(=O)NCCCC[C@H](NC(=O)[C@@H](N)CCCCNC(=O)[C@@H](N)CCCCNC(=O)CC[C@H](NC(=O)CCCCCCCCCCCCCCCCC(=O)O)C(=O)O)C(=O)O)NC(=O)[C@H](C)NC(=O)[C@H](C)NC(=O)[C@H](CCC(N)=O)NC(=O)[C@H](CCCCN)NC(=O)[C@H](CCC(=O)O)NC(=O)[C@H](CC(C)C)NC(=O)[C@H](Cc1ccc(O)cc1)NC(=O)[C@H](Cc1ccc(O)cc1)NC(=O)[C@H](CO)NC(=O)[C@H](Cc1ccc(O)cc1)NC(=O)[C@H](CC(=O)O)NC(=O)[C@H](CO)NC(=O)[C@@H](NC(=O)[C@H](Cc1ccccc1)NC(=O)[C@@H](NC(=O)CNC(=O)[C@H](CCC(=O)O)NC(=O)C(C)(C)NC(=O)[C@@H](N)Cc1ccc(O)cc1)[C@@H](C)O)[C@@H](C)O)C(C)C)C(=O)N[C@@H](C)C(=O)NCC(=O)NCC(=O)N1CCC[C@H]1C(=O)N[C@@H](CO)C(=O)N[C@@H](CO)C(=O)NCC(=O)N[C@@H](C)C(=O)N1CCC[C@H]1C(=O)N1CCC[C@H]1C(=O)N1CCC[C@H]1C(=O)N[C@@H](CO)C(N)=O` (H-Y[Aib]EGTFTSDYSYYLEKQAAC(X6)LFVQWLLAGGPSSGAPPPS-NH2), the EC50 in assay [1] amounted to 19.2 nM; in assay [2], 1.26 nM.
In the same order, the values of `CC(C)C[C@H](NC(=O)[C@H](CC(C)C)NC(=O)[C@H](Cc1c[nH]c2ccccc12)NC(=O)[C@H](CCC(N)=O)NC(=O)[C@@H](NC(=O)[C@H](Cc1ccccc1)NC(=O)[C@H](CC(C)C)NC(=O)[C@H](CS)NC(=O)[C@H](C)NC(=O)[C@H](C)NC(=O)[C@H](CCC(N)=O)NC(=O)[C@H](CCCCN)NC(=O)[C@H](CCC(=O)O)NC(=O)[C@H](CC(C)C)NC(=O)[C@H](Cc1ccc(O)cc1)NC(=O)[C@H](Cc1ccc(O)cc1)NC(=O)[C@H](CO)NC(=O)[C@H](Cc1ccc(O)cc1)NC(=O)[C@H](CC(=O)O)NC(=O)[C@H](CO)NC(=O)[C@@H](NC(=O)[C@H](Cc1ccccc1)NC(=O)[C@@H](NC(=O)CNC(=O)[C@H](CCC(=O)O)NC(=O)C(C)(C)NC(=O)[C@@H](N)Cc1ccc(O)cc1)[C@@H](C)O)[C@@H](C)O)C(C)C)C(=O)N[C@@H](C)C(=O)NCC(=O)NCC(=O)N1CCC[C@H]1C(=O)N[C@@H](CO)C(=O)N[C@@H](CO)C(=O)NCC(=O)N[C@@H](C)C(=O)N1CCC[C@H]1C(=O)N1CCC[C@H]1C(=O)N1CCC[C@H]1C(=O)N[C@@H](CO)C(N)=O` (H-Y[Aib]EGTFTSDYSYYLEKQAACLFVQWLLAGGPSSGAPPPS-NH2) are 0.6 nM and 0.29 nM.
On the same counts, the results for `CC(C)C[C@H](NC(=O)[C@H](CC(C)C)NC(=O)[C@H](Cc1c[nH]c2ccccc12)NC(=O)[C@H](CCC(N)=O)NC(=O)[C@@H](NC(=O)[C@H](Cc1ccccc1)NC(=O)[C@H](CS)NC(=O)[C@H](CCCCN)NC(=O)[C@H](C)NC(=O)[C@H](C)NC(=O)[C@H](CCC(N)=O)NC(=O)[C@H](CCCCN)NC(=O)[C@H](CCC(=O)O)NC(=O)[C@H](CC(C)C)NC(=O)[C@H](Cc1ccc(O)cc1)NC(=O)[C@H](Cc1ccc(O)cc1)NC(=O)[C@H](CO)NC(=O)[C@H](Cc1ccc(O)cc1)NC(=O)[C@H](CC(=O)O)NC(=O)[C@H](CO)NC(=O)[C@@H](NC(=O)[C@H](Cc1ccccc1)NC(=O)[C@@H](NC(=O)CNC(=O)[C@H](CCC(=O)O)NC(=O)C(C)(C)NC(=O)[C@@H](N)Cc1ccc(O)cc1)[C@@H](C)O)[C@@H](C)O)C(C)C)C(=O)N[C@@H](C)C(=O)NCC(=O)NCC(=O)N1CCC[C@H]1C(=O)N[C@@H](CO)C(=O)N[C@@H](CO)C(=O)NCC(=O)N[C@@H](C)C(=O)N1CCC[C@H]1C(=O)N1CCC[C@H]1C(=O)N1CCC[C@H]1C(=O)N[C@@H](CO)C(N)=O` (H-Y[Aib]EGTFTSDYSYYLEKQAAKCFVQWLLAGGPSSGAPPPS-NH2) are 14.8 nM and 6.51 nM.

The values above are taken from ChEMBL document CHEMBL5576038, “Design of a novel long-acting dual GLP-1/GIP receptor agonist” (Bioorg Med Chem, 2024).
